Data from ChEMBL document CHEMBL3301361, “Experimental in vitro DMPK and physicochemical data on a set of publicly disclosed compounds”.
Values after ≈ are worked out from the molar mass of the structure shown. Where a name gives a salt, the structure may show the parent alone.

Assays:
in vitro [1] = conditions: human, plasma
in vitro [2] = conditions: SD, HW or BN, rat, plasma
physchem [3] = conditions: octan-1-ol/water
in vitro [4] = conditions: human
physchem [5] = conditions: pH 7.4 buffer

Compound: Clc1ccc2c(c1)C(N1CCNCC1)=Nc1ccccc1O2 [AMOXAPINE]
- fraction unbound at 5 h (in vitro [1]; PPB): 0.11
- fraction unbound at 5 h (in vitro [2]): 0.101
- logD (physchem [3]; pH 7.4, LogD7.4): 2.28

Compound: O=S(=O)(N[C@H](CO)C(C(F)(F)F)C(F)(F)F)c1ccc(Cl)s1 [BEGACESTAT]
- fraction unbound at 5 h (in vitro [1]; PPB): 0.0909
- fraction unbound at 5 h (in vitro [2]): 0.11

Compound: CCCCc1nc(Cl)c(C(=O)O)n1Cc1ccc(-c2ccccc2-c2nn[nH]n2)cc1 [CARBOXYLIC ACID METABOLITE]
- fraction unbound at 5 h (in vitro [1]; PPB): 0.0049
- fraction unbound at 5 h (in vitro [2]): 0.0022

Compound: CN(C)CCC=C1c2ccccc2C=Cc2ccccc21 [CYCLOBENZAPRINE]
- fraction unbound at 5 h (in vitro [1]; PPB): 0.0784
- microsomal CLint (in vitro [4]; microsomes): 4.07 µL/min/mg
- fraction unbound at 5 h (in vitro [2]): 0.117
- logD (physchem [3]; pH 7.4, LogD7.4): 2.83

Compound: CCOC(=O)Nc1ccc(NCc2ccc(F)cc2)cc1N [EZOGABINE]
- fraction unbound at 5 h (in vitro [1]): 0.139
- fraction unbound at 5 h (in vitro [2]): 0.201

Compound: CC(C(=O)O)c1cccc(Oc2ccccc2)c1 (stereo unspecified) [FENOPROFEN]
- microsomal CLint (in vitro [4]; liver microsomes): 10.2 µL/min/mg
- fraction unbound at 5 h (in vitro [2]): 0.0146
- logD (physchem [3]; pH 7.4, LogD7.4): 0.71

Compound: OCCN1CCN(CCCN2c3ccccc3Sc3ccc(C(F)(F)F)cc32)CC1 [FLUPHENAZINE]
- fraction unbound at 5 h (in vitro [1]): 0.0119
- fraction unbound at 5 h (in vitro [2]): 0.0119
- logD (physchem [3]; pH 7.4): 3.8

Compound: CCOC(=O)Nc1ccc(NCc2ccc(F)cc2)nc1N [FLUPIRTINE]
- fraction unbound at 5 h (in vitro [1]; PPB): 0.16
- fraction unbound at 5 h (in vitro [2]): 0.22
- logD (physchem [3]; pH 7.4, LogD7.4): 2.22

Compound: COCCCC/C(=N\OCCN)c1ccc(C(F)(F)F)cc1 [FLUVOXAMINE MALEATE]
- fraction unbound at 5 h (in vitro [1]; PPB): 0.266
- fraction unbound at 5 h (in vitro [2]): 0.224

Compound: C[N+](C)(Cc1ccc(NC(=O)c2ccc(Cl)c(Cl)c2)cc1)C1CCOCC1 [JNJ-17166864 CATION]
- fraction unbound at 5 h (in vitro [1]; PPB): 0.179
- fraction unbound at 5 h (in vitro [2]): 0.387

Compound: CNC1(c2ccccc2Cl)CCCCC1=O (stereo unspecified) [KETAMINE]
- fraction unbound at 5 h (in vitro [1]): 0.58
- fraction unbound at 5 h (in vitro [2]): 0.552

Compound: CC(C)NC[C@H](O)COc1cccc2ccccc12 [LEVOPROPRANOLOL]
- fraction unbound at 5 h (in vitro [1]): 0.139
- fraction unbound at 5 h (in vitro [2]): 0.204

Compound: Cc1c(F)cc(C(=O)NC2CC2)cc1-c1ccc(C(=O)NCC(C)(C)C)cn1 [LOSMAPIMOD]
- fraction unbound at 5 h (in vitro [1]; PPB): 0.119
- fraction unbound at 5 h (in vitro [2]): 0.0818

Compound: CNCCCC12CCC(c3ccccc31)c1ccccc12 [MAPROTILINE]
- fraction unbound at 5 h (in vitro [1]; PPB): 0.126
- fraction unbound at 5 h (in vitro [2]): 0.0784
- logD (physchem [3]; pH 7.4, LogD7.4): 0.89

Compound: Cn1cc[nH]c1=S [METHIMAZOLE]
- fraction unbound at 5 h (in vitro [1]; PPB): 0.81
- fraction unbound at 5 h (in vitro [2]): 0.814
- logD (physchem [3]; pH 7.4, LogD7.4): -0.42

Compound: O=C(O)c1cccnc1 [NIACIN]
- fraction unbound at 5 h (in vitro [1]; PPB): 0.552
- fraction unbound at 5 h (in vitro [2]): 0.546

Compound: Cc1cc2c(s1)Nc1ccccc1N=C2N1CCN(C)CC1 [OLANZAPINE]
- fraction unbound at 5 h (in vitro [1]): 0.107
- fraction unbound at 5 h (in vitro [2]): 0.124
- logD (physchem [3]; pH 7.4): 2.19

Compound: Fc1ccc([C@@H]2CCNC[C@H]2COc2ccc3c(c2)OCO3)cc1 [PAROXETINE]
- fraction unbound at 5 h (in vitro [1]; PPB): 0.101
- fraction unbound at 5 h (in vitro [2]): 0.0532
- logD (physchem [3]; pH 7.4, LogD7.4): 1.78

Compound: O=C1NC(=O)C(c2ccccc2)(c2ccccc2)N1 [PHENYTOIN]
- fraction unbound at 5 h (in vitro [1]; PPB): 0.129
- fraction unbound at 5 h (in vitro [2]): 0.179
- logD (physchem [3]; pH 7.4, LogD7.4): 2.41
- solubility thermodynamic (physchem [5]): 79.4 µM (≈ 20 µg/mL)

Compound: CNc1ccc(-c2nc3ccc(O)cc3s2)cc1 [PITTSBURGH COMPOUND B UNLABELLED]
- fraction unbound at 5 h (in vitro [1]; PPB): 0.0111
- fraction unbound at 5 h (in vitro [2]): 0.0183

Compound: O=C(O)c1c(O)c(Cc2ccc(Cl)cc2)nc2c3c(ccc12)CCCC3 [PSI-697]
- fraction unbound at 5 h (in vitro [1]; PPB): 0.0007
- fraction unbound at 5 h (in vitro [2]): 0.0014

Compound: CCc1nc(N)nc(N)c1-c1ccc(Cl)cc1 [PYRIMETHAMINE]
- fraction unbound at 5 h (in vitro [1]; PPB): 0.0736
- fraction unbound at 5 h (in vitro [2]): 0.069
- logD (physchem [3]; pH 7.4, LogD7.4): 2.31

Compound: CCN1CCC[C@H]1CNC(=O)c1c(O)c(Cl)cc(Cl)c1OC [RACLOPRIDE]
- fraction unbound at 5 h (in vitro [1]; PPB): 0.11
- fraction unbound at 5 h (in vitro [2]): 0.557

Compound: COc1ccc(C2CNC(=O)C2)cc1OC1CCCC1 (stereo unspecified) [ROLIPRAM]
- fraction unbound at 5 h (in vitro [1]; PPB): 0.173
- fraction unbound at 5 h (in vitro [2]): 0.329

Compound: CN(C)CCOc1cc(NS(=O)(=O)c2c(Cl)cc(C(F)(F)F)cc2Cl)ccc1Cl [SB611812]
- fraction unbound at 5 h (in vitro [1]; PPB): 0.0029
- fraction unbound at 5 h (in vitro [2]): 0.0024
- logD (physchem [3]; pH 7.4, LogD7.4): 2.99

Compound: CN1CCc2cc(Cl)c(O)cc2[C@@H](c2ccccc2)C1 [SCH-23390]
- fraction unbound at 5 h (in vitro [1]; PPB): 0.0801
- fraction unbound at 5 h (in vitro [2]): 0.17
- logD (physchem [3]; pH 7.4, LogD7.4): 2.5

Compound: CN[C@H]1CC[C@@H](c2ccc(Cl)c(Cl)c2)c2ccccc21 [SERTRALINE]
- fraction unbound at 5 h (in vitro [1]; PPB): 0.0146
- fraction unbound at 5 h (in vitro [2]): 0.02
- logD (physchem [3]; pH 7.4, LogD7.4): 3.15

Compound: Cc1ccsc1C(=CCCN1CCC[C@@H](C(=O)O)C1)c1sccc1C [TIAGABINE]
- fraction unbound at 5 h (in vitro [1]; PPB): 0.051
- fraction unbound at 5 h (in vitro [2]): 0.0836
- logD (physchem [3]; pH 7.4, LogD7.4): 1.49

Compound: O=c1n(CCCN2CCN(c3cccc(Cl)c3)CC2)nc2ccccn12 [TRAZODONE]
- fraction unbound at 5 h (in vitro [1]): 0.03
- fraction unbound at 5 h (in vitro [2]): 0.124
- logD (physchem [3]; pH 7.4, LogD7.4): 2.67
- solubility thermodynamic (physchem [5]): 891 µM (≈ 331 µg/mL)

Compound: O=C(CC(c1ccccc1)c1ccccc1)N1CCN(C(c2ccccc2)c2ccccc2)CC1 [Z160]
- fraction unbound at 5 h (in vitro [1]; PPB): 0.001
- fraction unbound at 5 h (in vitro [2]): 0.5

Compound: O=C1Cc2cc(CCN3CCN(c4nsc5ccccc45)CC3)c(Cl)cc2N1 [ZIPRASIDONE]
- fraction unbound at 5 h (in vitro [1]; PPB): 0.001
- fraction unbound at 5 h (in vitro [2]): 0.003
